Key:
free DNA = assay: Free DNA binding, ethidium bromide displacement assay; settings: incubated with free DNA in a petri dish
Method: Voriconazole, moxifloxacin, composition A from Table 1, above, a combination of voriconazole and composition A and a combination of moxifloxacin and composition A were each individually incubated with free DNA in a petri dish with and without the addition of voriconazole or moxifloxacin. The percentage of free DNA bound was measured using an ethidium bromide displacement assay. See results in FIG. 1.
Compositions #1-3 from Table 1, above, were each individually incubated with free DNA in a petri dish at concentrations of 1% and 10% in PBS buffer. The percentage of free DNA bound was measured using an ethidium bromide displacement assay.

TNF-alpha [1] = assay: TNF-alpha ELISA in differentiated THP-1 cells infected with A. flavus DNA; type: cell-based, human; settings: 6 micrograms A. flavus DNA, 24 hours post infection; DNA alone 180
Source text: Tumor Necrosis Factor alpha secretion (“TNF-alpha”) is a marker for DNA-induced inflammation. See, Campbell et al., CpG-containing immunostimulatory DNA sequences elicit TNF-alpha-dependent toxicity in rodents but not in humans, 2009, J Clin Invest, 119(9), 2564-2576. 3 sets of differentiated human leukemia monocytic (“differentiated THP-1”) cells were infected with 6 micrograms of A. flavus DNA, 6 micrograms of A. flavus DNA and composition A, 6 micrograms of A. flavus DNA and voriconazole, or 6 micrograms of A. flavus DNA, voriconazole and composition A. 24 hours post infection the cells were assayed for TNF-alpha protein levels via enzyme-linked immunosorbent assays (“ELISA”). Results of this study can be found in FIGS. 2A and 2B.
6 sets of differentiated THP-1 cells were infected with 1) nothing, 2) lipofectamine™ 2000 transfectin reagent, 3) 6 micrograms of A. flavus DNA, 4) 6 micrograms of A. flavus DNA and composition #1 from Table 1, above, 5) 6 micrograms of A. flavus DNA and composition #2 from Table 1, above, 6) 6 micrograms of A. flavus DNA and composition #3 from Table 1, above. 24 hours post infection the cells were assayed for TNF-alpha protein levels via ELISA.

TNF-alpha [2] = assay: TNF-alpha ELISA in differentiated THP-1 cells infected with P. aeruginosa DNA; type: cell-based, human; settings: 6 micrograms P. aeruginosa DNA, 24 hours post infection; DNA alone 1,200
Method: 3 sets of differentiated THP-1 cells were infected with 6 micrograms of […], 6 micrograms of P. aeruginosa DNA and composition A from Table 1, above, 6 micrograms of P. aeruginosa DNA and moxifloxacin, or 6 micrograms of P. aeruginosa DNA, moxifloxacin and composition A. 24 hours post infection the cells were assayed for TNF-alpha protein levels via ELISA. Results of this study can be found in FIGS. 3A and 3B.

In the case of `C[C@@H](c1ncncc1F)[C@](O)(Cn1cncn1)c1ccc(F)cc1F` [voriconazole], the “percentage of free DNA bound” value (free DNA) is reported as 0% and the TNF-alpha protein levels (TNF-alpha [1]) is reported as 85 picograms per milliliter.
`COc1c(N2C[C@@H]3CCCN[C@@H]3C2)c(F)cc2c(=O)c(C(=O)O)cn(C3CC3)c12` [moxifloxacin] showed a TNF-alpha protein levels (TNF-alpha [2]) of 450 picograms per milliliter.

— patent US20260216063A1, “METHODS OF SUPPRESSING FREE DNA AND COMPOSITIONS THEREOF” (PS Therapy, Inc., priority 2023, published 2026)
